Data as given in patent publication US11666559B2, “Spiro-lactam compounds, process and uses thereof” (UNIVERSIDADE DE COIMBRA, priority 2017, dated 2023).
pIC50: −log10 of the molar value. “Also recorded” adds a separate entry of the source. Where two headings read alike, the source gives them in different places.

What was measured:
P. berghei liver stages = test: In vitro activity against the liver stage of Plasmodium infection (luciferase assay in Huh7 cells); assay type: cell-based, Plasmodium berghei; conditions: for anti-Plasmodium activity (in words): P. berghei liver stages in Huh7 cells
Method: FIG. 6: Compound activity against P. berghei liver stages. Anti-Plasmodial activity (infection axis, bars) and toxicity to hepatoma cells (cell confluency axis, circles) are shown. Infection loads of Huh7 cells, a human hepatoma cell line, were determined by bioluminescence measurements of cell lysates 48 h after infection with luciferase-expressing P. berghei parasites. Luciferase assay in 96 well-plate; 10 000 Huh7 cells/well+10 000 PbA-LuciGFPcon spz/well.
In an embodiment, the in vitro activity against the liver stage of Plasmodium infection was also carried out: inhibition of liver stage Plasmodium infection by test compounds was determined by measuring the luminescence intensity in Huh-7 cells infected with a firefly luciferase-expressing P. berghei line, as previously described. Briefly, Huh-7 cells, a human hepatoma cell line, were cultured in 1640 RPMI medium supplemented with 10% v/v fetal bovine serum, 1% v/v nonessential amino acids, 1% v/v penicillin/streptomycin, 1% v/v glutamine, and 10 mM 4-(2-hydroxyethyl)-1-piperazineethanesulfonic acid (HEPES), pH 7, and maintained at 37° C. with 5% CO2. For infection assays, Huh-7 cells (1.0×10^4 per well) were seeded in 96-well plates the day before drug treatment and infection. The medium was replaced by medium containing the appropriate concentration of each compound approximately 1 h prior to infection with sporozoites freshly obtained through disruption of salivary glands of infected female Anopheles stephensi mosquitoes. Sporozoite addition was followed by centrifugation at 1700×g for 5 min. Parasite infection load was measured 48 h after infection by a bioluminescence assay (Biotium). The effect of the compounds on the viability of Huh-7 cells was assessed by the AlamarBlue assay (Invitrogen, U.K.) using the manufacturer's protocol.

TZM-bl cells = test: Cellular viability assay (alamarBlue) in TZM-bl cells
Source text: In an embodiment, the cellular cytotoxicity of 17 spiro-β-lactams was investigated in TZM-bl cells using the AlamarBlue assay as recommended by the manufacturer (Invitrogen, USA). TZM-bl, previously designated JC53-bl (clone 13) is a HeLa cell line. The parental cell line (JC.53) stably expresses large amounts of CD4, CCR5 and CXCR4. The TZM-bl cell line was generated from JC.53 cells by introducing separate integrated copies of the luciferase and […] genes under control of the HIV-1 promoter. The TZM-bl cell line is highly sensitive to infection with diverse isolates of HIV.
In an embodiment, the cellular viability assay was carried out as follows: the potential in vitro cytotoxicity of all BSS compounds was evaluated in TZM-bl cells. TZM-bl cells (10000 cells/well in 96-well plates) were incubated in absence or presence of serial-two-fold dilutions of the compounds in growth medium (GM), with starting concentration of 100 μg/ml and a final concentration of 0.781 μg/ml. After 48 hours, cell viability was examined with alamarBlue reagent (Invitrogen, USA) according to manufacturer's instructions. Briefly, 10 μl of alamarBlue reagent was added to each well. After 4 hours at 37° C., the fluorescence was measured in Tecan Infinite M200 (excitation wavelength 550 nm and emission wavelength 600 nm).
In an embodiment, at least two independent experiments have been performed for each cytotoxicity analysis.
In an embodiment, for each assay there were medium controls (only growth medium), cell controls (cells without test compound) and cytotoxicity controls (a compound that kill cells—SDS).

[1] = Acute toxicity assay in Wistar rats
Method: Wistar rats (n=5) were inoculated IP with different doses of BSS-593 and effects on liver, renal and lipid homeostasis were assessed by dosing different biochemical parameters 48 h after inoculation. ALT, AST and LDH were determined as markers of liver function and serum level of creatinine were determined as marker of renal function. Serum levels of total cholesterol, low-density cholesterol (LDL), high-density cholesterol (HDL) and triglycerides were measured to evaluate the effect of the drugs on lipid homeostasis. Results were expressed as the means with their standard errors and were compared using a one-factorial ANOVA test, followed by a Bonferroni's multi-comparison post hoc test.
In an embodiment, the acute toxicity assay of spiro-β-lactam BSS-593 was carried out. […] Control animals were administered with sterile saline (1 mL/kg; n=4). […] After blood collection animals were necropsied to identify macroscopic signs of organ injury.
In an embodiment, an acute toxicity assay was carried out. Female Wistar (220-250 g) rats were randomly divided in 4 groups. […] A fourth group of control animals was administered with sterile saline (B. Braun, Portugal) (1 mL/kg; n=4). Animals received the test drug via the intraperitoneal route and were monitored regularly for visible stress or toxicity signs such as death. All rats were anesthetized with sodium pentobarbital (Eutasil, 60 mg/kg i.p; Sanofi VeterinAria, Alges, Portugal) prior to intracardiac puncture for blood collection. […] Blood was collected into a serum SST gel and clot activator tube (Becton Dickinson, Le Pont de Claix, France) and was centrifuged (1000×g for 10 min at room temperature) to separate serum. Serum was analyzed within 24 h on a laboratory bench Clinical Chemistry Analyser c111 (Roche Diagnostics, Lda). Uver injury was assessed by measuring the rise in the serum levels of alanine aminotransferase (ALT, a specific marker for hepatic parenchymal injury), aspartate aminotransferase (AST, a nonspecific marker for hepatic injury) and lactate dehydrogenase (LDH, a marker of nonspecific cellular injury). Serum levels of creatinine was determined as marker of renal injury. Serum levels of total cholesterol, low-density cholesterol (LDL), high-density cholesterol (HDL) and triglycerides were also measured to evaluate the effect of the drugs on lipid homeostasis. Results were expressed as the means with their standard errors and were compared using a one-factorial ANOVA test, followed by a Bonferroni's multi-comparison post hoc test. A P value <0.05 was considered to be statistically significant.

[2] = single intraperitoneal dose 0.1, 1 or 10 mg/kg, 48 h

Compound	anti-Plasmodium activity (in words) (P. berghei liver stages)	pIC50 (P. berghei liver stages; luciferase-expressing P. berghei in Huh7 cells, 48 h after infection)	CC50 (TZM-bl cells)	time to anaesthesia (sodium pentobarbital) between treated and control animals ([1]; intraperitoneal 0.1, 1 or 10 mg/kg, reflects apparent CNS effects)	abnormal behavior or signs of toxicity [1, 2]	biochemical markers of liver function, kidney function and general cell injury (ALT, AST, creatinine, LDH in the blood) vs control animals [1, 2]	blood lipid profiles (cholesterol, LDL, HDL and TG) [1, 2]	macroscopic signs of organ injury at necropsy ([1]; single intraperitoneal dose 0.1, 1 or 10 mg/kg, after blood collection)	animal survival rate ([1]; single intraperitoneal dose 0.1, 1 or 10 mg/kg, test period of 48 h)	CC50 (TZM-bl cells; Table 2, TZM-bl cells, 48 hours, alamarBlue)	CC50 (TZM-bl cells; read-out: CC50 (cytotoxic concentration 50%), Table 1, TZM-bl cells, 48 hours, alamarBlue)
CC1(C)S[C@H]2N(C(=O)[C@]23CC=C(C(=O)OCc2ccccc2)[C@@H]3C(=O)c2ccccc2)[C@H]1C(=O)OC(c1ccccc1)c1ccccc1 [BSS-730A]	presented activity	6.26	76.8 µM								
COC(=O)C1=C[C@@]2(N=N1)C(=O)N1[C@@H](C(=O)O)C(C)(C)S[C@@H]12 [BSS-593, (2,3′R,5R)-5′-(methoxycarbonyl)-3,3-dimethyl-7-oxo-4-thia-1-azaspiro[bicyclo[3.2.0]heptane-6,3′-pyrazole]-2-carboxylic acid]	presented activity			no significant differences	No abnormal behavior or signs of abnormal toxicity were noticed	no significant differences; also recorded: does not induce liver and renal injury	no changes; also recorded: does not alter lipid metabolism	No significant differences	100%	158 µM	158 µM
